Columns and labels:
FimH-CRD [1] = molecular target: T1, FimH-CRD (Escherichia coli, UniProt P08191); test: Competitive binding assay by fluorescence polarization, assay 2 (compounds prepared by robotics, plates frozen and thawed)
T1 construct: The first 177 amino acids of the FimH protein; thrombin tag (printed as 'fusion protein with thrombin') (cleaved yes); made in house; host or cells: bacteria (pET21b plasmid)
Procedure: The first 177 amino acids of the FimH protein were expressed as a fusion protein with thrombin in a pET21b plasmid in bacteria. This FimH protein sequence contains the carbohydrate recognition domain (CRD) and shall be termed FimH-CRD. Following bacterial expression of the protein, the FimH-CRD protein was purified to homogeneity and the thrombin tag removed by protease cleavage. A competitive binding assay by fluorescence polarization was performed using 5 nM of the Alexa 647 mannoside probe and 60 nM of the FimH-CRD. The samples are assayed in a low volume 384 well microtiter plate in a final volume of 20 μl. The final assay buffer conditions are the following, 50 mM Tris-Cl, ph 7.0, 100 mM NaCl, 1 mM EDTA, 5 mM β-mercaptoethanol, 0.05% BSA and 2.5% DMSO. Two assays are performed for FimH, termed assay 1 or assay 2. The assay conditions are the same for both assays except the following: assay 1 has compounds prepared by manual dilution in a serial dilution factor with 12-point dose response while assay 2 has compounds prepared by a robotics system also through a serial dilution factor (12 point dose response) and initially prepared in duplicate in 384 well-Corning polypropylene round bottom plates. The assay 2 plates have compound which is then frozen and must be thawed prior to use. Initially the Alexa 647 probe and the FimH-CRD are added to the assay buffer and then 0.5 μl of test compound (assay 1 or 2) between 0.4 nM to 75 μM final concentration are added (12 point titration with 3-fold serial dilution). Control wells for the Alexa 647 probe are prepared with the same conditions except for the addition of the FimH-CRD protein. Plates are then incubated for 5 hrs at room temperature in the dark and under humid conditions to prevent drying. Plates are read using the SpectraMax Paradigm multi-mode plate reader and the appropriate fluorescent polarization detection cartridge (Alexa-647).
Alexa 647 mannoside probe is prepared using the similar procedure reported for FAM mannoside (Han, Z. et. al., 2010, J. Med. Chem., 53, 4779) and is described in the scheme below.
To a blue colored stirred solution of (2S,3S,4S,5S,6R)-2-(4-aminobutoxy)-6-(hydroxymethyl)tetrahydropyran-3,4,5-triol (2.21 mg, 0.009 mmol) and the (2E)-2-[(2E,4E)-5-[3,3-dimethyl-5-sulfonato-1-(3-sulfonatopropyl)indol-1-ium-2-yl]penta-2,4-dienylidene]-3-[6-(2,5-dioxopyrrolidin-1-yl)oxy-6-oxo-hexyl]-3-methyl-1-(3-sulfonatopropyl)indoline-5-sulfonate (Potassium Ion (3)) (4.9 mg, 0.0044 mmol) in DMF (44 μL) is added Et3N (5.4 mg, 7.0 μL, 0.053 mmol) at RT. The solution is stirred at room temperature over night, concentrated, dissolved in water and purified on 12 g C-18 silica gel cartridge on Isolera system using acetonitrile in water (0 to 40%, 10 CV) and followed by lyophilization to afford Alexa 647 mannoside probe (3.3 mg, 34%) as deep blue solid.
The Kd values of the compounds are determined from dose response curves using twelve concentrations per compound in duplicate. Curves are fitted to data points using Fluorescence Polarization competitive displacement analysis, and Kds are interpolated from the resulting curves using GraphPad Prism software, version […] (GraphPad software Inc., San Diego, Calif., USA).

FimH-CRD [2] = molecular target: T1, FimH-CRD; test: Competitive binding assay by fluorescence polarization, assay 1 (compounds prepared by manual serial dilution)
In short: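 Fluorescence-polarization competition of 5 nM Alexa 647 mannoside probe with 60 nM FimH-CRD (first 177 residues, tag removed) in Tris-Cl pH 7.0, NaCl, EDTA, β-ME, BSA, 2.5% DMSO, 5 h at RT in the dark. Twelve-point 3-fold titrations (0.4 nM–75 μM) in duplicate; Kd interpolated from displacement curves.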

T1 sequence (P08191 22-177): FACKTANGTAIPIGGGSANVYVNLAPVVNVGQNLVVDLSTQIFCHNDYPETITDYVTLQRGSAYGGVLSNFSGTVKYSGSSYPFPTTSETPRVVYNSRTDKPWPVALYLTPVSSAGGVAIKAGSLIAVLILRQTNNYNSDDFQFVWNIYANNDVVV

## C#Cc1cccc([C@H]2O[C@H](CO)[C@@H](O)[C@H](O)[C@@H]2O)c1 [Compound 73, ((2R,3S,4R,5S,6R)-2-(3-Ethynylphenyl)-6-(hydroxymethyl)tetrahydropyran-3,4,5-triol)]
FimH-CRD [1]
  Kd: 33.8 ± 13.6 nM

## C#Cc1ccc([C@H]2O[C@H](CO)[C@@H](O)[C@H](O)[C@@H]2O)cc1 [Compound 74, (2R,3S,4R,5S,6R)-2-(4-Ethynylphenyl)-6-(hydroxymethyl)tetrahydropyran-3,4,5-triol]
FimH-CRD [1]
  Kd: 26.4 ± 14.3 nM

## C#Cc1cc([C@H]2O[C@H](CO)[C@@H](O)[C@H](O)[C@@H]2O)ccc1OC [Compound 75, (2R,3S,4R,5S,6R)-2-(3-Ethynyl-4-methoxy-phenyl)-6-(hydroxymethyl)tetrahydropyran-3,4,5-triol]
FimH-CRD [1]
  Kd: 40 ± 11.3 nM

## Cc1c(Br)cccc1[C@H]1O[C@H](CO)[C@@H](O)[C@H](O)[C@@H]1O [Compound 76, (2R,3S,4R,5S,6R)-2-(3-Bromo-2-methyl-phenyl)-6-(hydroxymethyl)tetrahydropyran-3,4,5-triol]
FimH-CRD [1]
  Kd: 38.9 ± 13 nM

## COc1cc([C@H]2O[C@H](CO)[C@@H](O)[C@H](O)[C@@H]2O)ccc1Br [Compound 77]
FimH-CRD [1]
  Kd: 81.7 ± 11 nM

## COC(=O)c1cccc(Cn2cc(-c3ccc([C@H]4O[C@H](CO)[C@@H](O)[C@H](O)[C@@H]4O)cc3)nn2)c1 [Compound 80, Methyl 3-[[4-[4-[(2R,3S,4R,5S,6R)-3,4,5-trihydroxy-6-(hydroxymethyl)tetrahydropyran-2-yl]phenyl]triazol-1-yl]methyl]benzoate]
FimH-CRD [1]
  Kd: 12.3 ± 6.2 nM

## OC[C@H]1O[C@H](c2ccc(-c3cn(Cc4ccccc4)nn3)cc2)[C@@H](O)[C@@H](O)[C@@H]1O [Compound 81, (2R,3S,4R,5S,6R)-2-[4-(1-Benzyltriazol-4-yl)phenyl]-6-(hydroxymethyl)tetrahydropyran-3,4,5-triol]
FimH-CRD [1]
  Kd: 15.2 ± 4.3 nM

## COC(=O)c1cc(C#Cc2cc([C@H]3O[C@H](CO)[C@@H](O)[C@H](O)[C@@H]3O)ccc2OC)cc(C(=O)OC)c1 [Compound 82, Dimethyl 5-[2-[2-methoxy-5-[(2R,3S,4R,5S,6R)-3,4,5-trihydroxy-6-(hydroxymethyl)tetrahydropyran-2-yl]phenyl]ethynyl]benzene-1,3-dicarboxylate]
FimH-CRD [1]
  Kd: 23.2 ± 15.1 nM

## CNC(=O)c1cccc(C#Cc2cc([C@H]3O[C@H](CO)[C@@H](O)[C@H](O)[C@@H]3O)ccc2OC)c1 [Compound 83, 3-[2-[2-Methoxy-5-[(2R,3S,4R,5S,6R)-3,4,5-trihydroxy-6-(hydroxymethyl)tetrahydropyran-2-yl]phenyl]ethynyl]-N-methyl-benzamide]
FimH-CRD [1]
  Kd: 32.2 ± 5.8 nM

## CNC(=O)c1cc(C#Cc2cc([C@H]3O[C@H](CO)[C@@H](O)[C@H](O)[C@@H]3O)ccc2OC)cc(C(=O)NC)c1 [Compound 84, 5-[2-[2-Methoxy-5-[(2R,3S,4R,5S,6R)-3,4,5-trihydroxy-6-(hydroxymethyl)tetrahydropyran-2-yl]phenyl]ethynyl]-N1,N3-dimethyl-benzene-1,3-dicarboxamide]
FimH-CRD [1]
  Kd: 27.5 ± 3.9 nM

## CNC(=O)c1cc(C#Cc2cccc([C@H]3O[C@H](CO)[C@@H](O)[C@H](O)[C@@H]3O)c2)cc(C(=O)NC)c1 [Compound 85, N1,N3-Dimethyl-5-[2-[3-[(2R,3S,4R,5S,6R)-3,4,5-trihydroxy-6-(hydroxymethyl)tetrahydropyran-2-yl]phenyl]ethynyl]benzene-1,3-dicarboxamide]
FimH-CRD [1]
  Kd: < 5 nM

## COC(=O)c1cccc(C#Cc2cccc([C@H]3O[C@H](CO)[C@@H](O)[C@H](O)[C@@H]3O)c2)c1 [Compound 86, Methyl 3-[2-[3-[(2R,3S,4R,5S,6R)-3,4,5-trihydroxy-6-(hydroxymethyl)tetrahydropyran-2-yl]phenyl]ethynyl]benzoate]
FimH-CRD [1]
  Kd: 23.7 ± 10.8 nM

## COC(=O)c1ccc(C#Cc2cccc([C@H]3O[C@H](CO)[C@@H](O)[C@H](O)[C@@H]3O)c2)cc1 [Compound 87, Methyl 4-[2-[3-[(2R,3S,4R,5S,6R)-3,4,5-trihydroxy-6-(hydroxymethyl)tetrahydropyran-2-yl]phenyl]ethynyl]benzoate]
FimH-CRD [1]
  Kd: 6.8 ± 0.2 nM

## COC(=O)c1cccc(C#Cc2ccc([C@H]3O[C@H](CO)[C@@H](O)[C@H](O)[C@@H]3O)cc2)c1 [Compound 88, Methyl 3-[2-[4-[(2R,3S,4R,5S,6R)-3,4,5-trihydroxy-6-(hydroxymethyl)tetrahydropyran-2-yl]phenyl]ethynyl]benzoate]
FimH-CRD [1]
  Kd: 11.8 ± 7.9 nM

## COC(=O)c1ccc(C#Cc2ccc([C@H]3O[C@H](CO)[C@@H](O)[C@H](O)[C@@H]3O)cc2)cc1 [Compound 89, Methyl 4-[2-[4-[(2R,3S,4R,5S,6R)-3,4,5-trihydroxy-6-(hydroxymethyl)tetrahydropyran-2-yl]phenyl]ethynyl]benzoate]
FimH-CRD [1]
  Kd: 14.5 ± 2.2 nM

## CNC(=O)c1cc(C#Cc2cccc([C@H]3O[C@H](CO)[C@@H](O)[C@H](O)[C@@H]3O)c2C)cc(C(=O)NC)c1 [Compound 90, N1,N3-Dimethyl-5-[2-[2-methyl-3-[(2R,3S,4R,5S,6R)-3,4,5-trihydroxy-6-(hydroxymethyl)tetrahydropyran-2-yl]phenyl]ethynyl]benzene-1,3-dicarboxamide]
FimH-CRD [1]
  Kd: 20.3 ± 2.2 nM

## OC[C@H]1O[C@H](c2cccc(C#Cc3ccccc3)c2)[C@@H](O)[C@@H](O)[C@@H]1O [Compound 91, (2R,3S,4R,5S,6R)-2-(Hydroxymethyl)-6-[3-(2-phenylethynyl)phenyl]tetrahydropyran-3,4,5-triol]
FimH-CRD [1]
  Kd: 23.6 ± 8.7 nM

## CNC(=O)c1cccc(C#Cc2cccc([C@H]3O[C@H](CO)[C@@H](O)[C@H](O)[C@@H]3O)c2)c1 [Compound 93, N-Methyl-3-[2-[3-[(2R,3S,4R,5S,6R)-3,4,5-trihydroxy-6-(hydroxymethyl)tetrahydropyran-2-yl]phenyl]ethynyl]benzamide]
FimH-CRD [1]
  Kd: 7.5 ± 2.5 nM

## CNC(=O)c1cc(/C=C/Cc2cccc([C@H]3O[C@H](CO)[C@@H](O)[C@H](O)[C@@H]3O)c2)cc(C(=O)NC)c1 [Compound 94, N1,N3-Dimethyl-5-[(E)-3-[3-[(2R,3S,4R,5S,6R)-3,4,5-trihydroxy-6-(hydroxymethyl)tetrahydropyran-2-yl]phenyl]prop-1-enyl]benzene-1,3-dicarboxamide]
FimH-CRD [1]
  Kd: 94.4 ± 13 nM

## OC[C@H]1O[C@H](c2cccc(C/C=C/c3cc(Cl)cc(Cl)c3)c2)[C@@H](O)[C@@H](O)[C@@H]1O [Compound 95, (2R,3S,4R,5S,6R)-2-[3-[(E)-3-(3,5-Dichlorophenyl)allyl]phenyl]-6-(hydroxymethyl)tetrahydropyran-3,4,5-triol]
FimH-CRD [1]
  Kd: 34 ± 7.8 nM

## COC(=O)Cc1cccc(Oc2ccc([C@H]3O[C@H](CO)[C@@H](O)[C@H](O)[C@@H]3O)cc2)c1 [Compound 293, methyl 2-(3-(4-((2R,3S,4R,5S,6R)-3,4,5-trihydroxy-6-(hydroxymethyl)tetrahydro-2H-pyran-2-yl)phenoxy)phenyl)acetate]
FimH-CRD [2]
  Kd: 9 ± 2 nM

## COC(=O)c1cccc(-c2ccc([C@H]3O[C@H](CO)[C@@H](O)[C@H](O)[C@@H]3O)cc2)c1 [Compound 294, methyl 4′-((2R,3S,4R,5S,6R)-3,4,5-trihydroxy-6-(hydroxymethyl)tetrahydro-2H-pyran-2-yl)-[1,1′-biphenyl]-3-carboxylate]
FimH-CRD [2]
  Kd: 11 ± 3 nM

## CNC(=O)c1cccc(-c2ccc([C@H]3O[C@H](CO)[C@@H](O)[C@H](O)[C@@H]3O)cc2)c1 [Compound 295, N-methyl-4′-((2R,3S,4R,5S,6R)-3,4,5-trihydroxy-6-(hydroxymethyl)tetrahydro-2H-pyran-2-yl)-[1,1′-biphenyl]-3-carboxamide]
FimH-CRD [2]
  Kd: 12 ± 3 nM

## CNC(=O)c1ccc(-c2ccc([C@H]3O[C@H](CO)[C@@H](O)[C@H](O)[C@@H]3O)cc2)cc1 [Compound 296, N-methyl-4′-((2R,3S,4R,5S,6R)-3,4,5-trihydroxy-6-(hydroxymethyl)tetrahydro-2H-pyran-2-yl)-[1,1′-biphenyl]-4-carboxamide]
FimH-CRD [2]
  Kd: 5 ± 0.4 nM
